Counter-ions that a name gives are not always drawn.
System: hen's chlorioallantoic membrane
Assay: CAM (Chorio Allantoic Membrane) assay
Format: in vivo
Conditions: for ED50: amount of drug which gave the numerical value 5 (positive rate) in CAM assay; for Positive rate of CAM assay: average neovascularization score (++=10, +=7, °=3, -=0), 3 days on membrane
Experimental: CAM (Chorio Allantoic Membrane) assay was conducted on various compounds of the present invention. The technique of the CAM assay was that modified somewhat on Auerbach's method [Developmental Biology, 41, 391 (1974)]. More specifically, hen's fertile eggs were incubated for three days at 37° C. (Napco carbon dioxide incubator-6300 was employed, CO2 :0% H2 O saturated). Polypropylene-made discs (6 mm. diameter) were spotted with a chloroform:ethanol (1:4 by volume) solution of each compound so that the concentration may be 0, 0.25, 0.64, 1.6, 4, 10 and 25 ug, respectively. The test materials were air-dried in a clean bench, which were then placed quietly on hen's chlorioallantoic membrane, followed by incubation at 37° C. for further three days. Then, the vascularization state was observed. In the tables, the positive rates were calculated on the following basis. Namely, degrees of neovascularization were determined as ++ for very strong, + for strong, ° for weak and - for negative, and they were numerized as 10, 7, 3 and 0, respectively. The average numerical value in each of the concentrations of the respective samples was made as positive rate. Further, the amount of the drug which gave the numerical value 5 in each sample was shown as ED50 value (ug/disc).

[1] = amount of sample 0.64 μg per disc
[2] = amount of sample 1.6 μg per disc
[3] = amount of sample 10 μg per disc
[4] = amount of sample 25 μg per disc

| SMILES | ED50 [ug/disc] | Positive rate of CAM assay [1] | Positive rate of CAM assay [2] | Positive rate of CAM assay (amount of sample 4 μg per disc) | Positive rate of CAM assay [3] | Positive rate of CAM assay [4] |
| --- | --- | --- | --- | --- | --- | --- |
| CCCCCCCC/C=C\CCCCCCCCCCCCN [1-Amino-13-docosene.HCl] | 0.94 | 3.4 | 7.0 | 8.8 | 10 | > 10 |
| C=CCCCCCCCCCCCCCCCCCCCC [1-Docosene] | 5.46 | 0 | 0 | 2.5 | 10 | 9.3 |
| CCCCCCCCCCCCCCCCCCCCCC[N+](C)(C)C [1-Trimethyammonio docosane bromide] | 4.00 | 0 | 4.5 | 5.0 | 8.0 |  |
| CCCCCCCC/C=C\CCCCCCCCCCCC(=O)Nc1ccc(Cl)cc1C(=O)O [2-NH2-4-Cl-BzCO2 H, N-erucoyl-2-amino-5-chlorobenzoic acid] | 2.70 | 2.6 | 4.2 | 5.6 | 8.0 | 10 |
| CCCCCCCC/C=C\CCCCCCCCCCCC(=O)N1C(C(=O)O)CSC1c1ccncc1 (stereo not shown) [2-Py-Thia-CO2 H] | 2.67 | 2.8 | 2.6 | 6.8 | 10 | 10 |
| CCCCCCCCC1OC1CCCCCCCCCCCC(N)=O (stereo not shown) [13,14-Epoxyerucamide] | 2.22 | 1.5 | 3.3 | 8.5 | 10 | 10 |
| CCCCCCCCC1OC1CCCCCCCCCCCCO (stereo not shown) [13, 14-Eopxy-docosan-1-ol] | 5.18 | 0 | 0 | 3.3 | 9.3 | 10 |
| CCCCCCCC/C=C\CCCCCCCCCCCCO [13-Docosen-1-ol] | 2.15 | 1.4 | 4.8 | 6.8 | 9.4 | 10 |
| CCCCCCCCCCCCCCCCCCCC(N)=O [Arachidamide] | 11.5 | 0 | 2.8 | 3.4 | 4.6 | 7.4 |
| CCCCCCCCCCCCCCCCCCCC(=O)O [Arachidic acid] | 4.00 | 0 | 4.6 | 4.6 | 7.6 | 8.8 |
| CCCCC/C=C\C/C=C\C/C=C\C/C=C\CCCC(N)=O [Arachidonamide] | 6.13 | 1.3 | 1.6 | 2.9 | 7.4 | 9.6 |
| CCCCC/C=C\C/C=C\C/C=C\C/C=C\CCCC(=O)O [Arachidonic acid] | 3.64 | 2.5 | 3.5 | 5.3 | 7 | 10 |
| CCCCCCCCCCCCCCCCCCCCCC(N)=O [Behenamide] | 2.76 | 0 | 1.8 | 7.6 | 10 | 10 |
| CCCCCCCC/C=C/CCCCCCCCCCCC(N)=O [Brassidamide] | 1.89 | 0 | 2.0 | 7.4 | 9.3 | 10 |
| CCCCCCCC/C=C/CCCCCCCCCCCC(=O)O [Brassidic acid] | 1.82 | 3.5 | 6 | 6 | 9.3 | 10 |
| CCCC(N)=O [Butyramide, reference compound] |  | 0 | 0 | 0 | 0 | 0 |
| CCCCCCCCCCCCCCCCCCCCCCCCCC(=O)O [Cerotic acid] | 2.75 | 1.8 | 2.5 | 7.8 | 9.3 | 8.5 |
| CC/C=C\C/C=C\C/C=C\C/C=C\C/C=C\C/C=C\CCC(=O)O [Docosahexaenoic acid] |  | 0 | 0 | 0 | 0.6 | 4.8 |
| CCCCCCCCCCCCCCCCCCCCCCO [Docosan-1-ol] | 2.55 | 0 | 1.8 | 8.3 | 10 | 10 |
| CCCCCCCC/C=C/CCCCCCCC(=O)O [Elaidic acid] |  | 0 | 0 | 3 | 4 | 4 |
| CCCCCCCCC(O)C(O)CCCCCCCCCCCC(N)=O (stereo not shown) [Erucamide, diOH, 13,14-dihydroxydocosanamide] | 5.62 | 0 | 2.0 | 3.8 | 7.0 | 9.4 |
| CCCCCCCCC(O)C(O)CCCCCCCCCCCC(=O)O (stereo not shown) [Erucic acid diOH] | 3.45 | 0 | 2.0 | 7.4 | 8.2 | 10 |
| CCCCCCCCCCCCCCCCCCCCCCCC(=O)O [Lignoceric acid] | 4.61 | 1.4 | 2 | 4.6 | 7.6 | 6.2 |
| CCCCC/C=C\C/C=C\CCCCCCCC(=O)O [Linoleic acid] | 7.69 | 0 | 1.8 | 2.5 | 6 | 10 |
| CCCCCCCCCCCCCC(N)=O [Myristamide] |  | 0 | 0 | 1.3 | 2.6 | 3.5 |
| CCCCCCCCCCCCCC(=O)O [Myristic acid] | 25.0 | 0 | 0 | 0.8 | 4 | 5 |

From patent US4940730A, “Angiogenesis enhancer” (Takeda Chemical Industries, Ltd., priority 1987, dated 1990)
